Earlier results in US8114422B2, “Methods and compositions for reducing skin damage” (The General Hospital Corporation, priority 2005, dated 2012).
pIC50: −log10 of the molar value. Read-outs that look alike come from different tables or passages of the source.

Assays:
PDGF receptor kinase = settings: read-out: IC50 PDGF receptor (tyrosine) kinase
[1] = tested on: mitochondrial membrane potential

| pIC50 (PDGF receptor kinase) | Structure (SMILES) | depolarization of mitochondrial membrane potential ([1]; treatment of cells at 10 μM) | depolarization of mitochondrial membrane potential ([1]; treatment of cells at 100 nm) |
| --- | --- | --- | --- |
| 6.00 | COc1cc2ncc(-c3ccccc3)nc2cc1OC [AG-1296, 6,7-Dimethoxy-3-phenylquinoxaline] | – | – |
| – | N#CC(C#N)=NNc1ccc(OC(F)(F)F)cc1 [FCCP, Carbonylcyanide-4-(trifluoromethoxy)-phenylhydrazone] | complete (10 μM) | partial (100 nm) or |
| 4.70 | N#CC(=Cc1ccc2[nH]ccc2c1)C(N)=C(C#N)C#N [AG-370] | – | – |
